Laboratory results as given in patent US5786364A, “Bicyclic isothiourea derivatives useful in therapy” (priority 1995, dated 1998).
Where two headings read alike, the source gives them in different places.

What was measured:
Format in all cases: biochemical
[1] = target: T1, inducible nitric oxide synthase (Homo sapiens, UniProt P35228); test: Screen B: screen for inducible nitric oxide synthase inhibiting activity (DLD-1 cell lysate)
T1 construct: Enzyme is prepared, after induction, from the cultured human colorectal carcinoma cell line, DLD-1; endogenous in cells; host or cells: DLD-1 cells (European Collection of Animal Cell Cultures), induced with IL-1, IFN-gamma, IL-6 and TNF-alpha; cell lysate
Description: (§1) Nitric oxide synthase converts ^3 H-L-arginine to ^3 H-L-citrulline which can be separated by cation exchange chromatography and quantified by scintillation counting.
(B) Screen for inducible nitric oxide synthase inhibiting activity
Enzyme is prepared, after induction, from the cultured human colorectal carcinoma cell line, DLD-1 (obtained from the European Collection of Animal Cell Cultures) DLD-1 cells are cultured in RPMI 1640 media supplemented with 10% foetal bovine serum, 4 mM L-glutamine and antibiotics (100 units/ml penicillin G, 100 μg/ml streptomycin & 0.25 μg/ml amphotericin B) and 100 ug/ml kanamycin. Cells are routinely grown in 225 cm^3 flasks containing 35 ml medium kept at 37° C. and in a humidified atmosphere containing 5% CO2.
Nitric oxide synthase is produced by cells in response to interferon-about 250 U/ml IL-1, 1000 U/ml IFNγ, 200 U/ml IL-6, and 200 U/ml TNF-alpha. After a period of 17-20 hours in culture, harvesting of cells is accomplished by scraping the cell sheet from the flask surface into the culture medium. […]
Labelled L-citrulline is separated from labelled L-arginine using Dowex AG-50W. […] After allowing the samples to dry the L-citrulline is quantified by scintillation counting. […]

[2] = target: T2, endothelial nitric oxide synthase (Homo sapiens, UniProt P29474); test: Screen C: screen for endothelial nitric oxide synthase inhibiting activity (HUVEC enzyme)
T2 construct: Enzyme may be isolated from human umbilical vein endothelial cells (HUVECs); host or cells: human umbilical vein endothelial cells (HUVECs)
Excerpt: as §1
(C) Screen for endothelial nitric oxide synthase inhibiting activity
HUVECs were purchased from Clonetics Corp (San Diego, Calif., U.S.A.) and cultured to confluency. Cells can be maintained to passage 35-40 without significant loss of yield of nitric oxide synthase. When cells reach confluency, they are resuspended in Dulbecco's phosphate buffered saline, centrifuged at 800 rpm for 10 mins, the cell pellet homogenised in ice-cold 50 mM Tris-HCl, 1 mM EDTA, 10% glycerol, 1 mM phenylmethylsulphonylfluoride, 2 μM leupeptin at pH 4.2. Following centrifugation at 34,000 rpm for 60 mins, the pellet is solubilised in the homogenisation buffer which also contains 20 mM CHAPS. After a 30 min incubation on ice, the suspension is centrifuged at 34,000 rpm for 30 mins. The resulting supernatant is stored at -80° C. until use. […]
Labelled L-citrulline is separated from labelled L-arginine by filtration into another 96 well plate and 75 ul of each terminated reaction is added to 3 ml of scintillation cocktail. The L-citrulline is then quantified by scintillation counting. […]

[3] = target: T3, neuronal nitric oxide synthase (Rattus norvegicus, UniProt P29476); test: Screen A: screen for neuronal nitric oxide synthase inhibiting activity (conversion of 3H-L-arginine to 3H-L-citrulline)
T3 construct: Enzyme was isolated from rat hippocampus or cerebellum; from tissue; host or cells: hippocampus or cerebellum of male Sprague-Dawley rat, 20,000 g supernatant
T3 sequence (P29476 whole entry): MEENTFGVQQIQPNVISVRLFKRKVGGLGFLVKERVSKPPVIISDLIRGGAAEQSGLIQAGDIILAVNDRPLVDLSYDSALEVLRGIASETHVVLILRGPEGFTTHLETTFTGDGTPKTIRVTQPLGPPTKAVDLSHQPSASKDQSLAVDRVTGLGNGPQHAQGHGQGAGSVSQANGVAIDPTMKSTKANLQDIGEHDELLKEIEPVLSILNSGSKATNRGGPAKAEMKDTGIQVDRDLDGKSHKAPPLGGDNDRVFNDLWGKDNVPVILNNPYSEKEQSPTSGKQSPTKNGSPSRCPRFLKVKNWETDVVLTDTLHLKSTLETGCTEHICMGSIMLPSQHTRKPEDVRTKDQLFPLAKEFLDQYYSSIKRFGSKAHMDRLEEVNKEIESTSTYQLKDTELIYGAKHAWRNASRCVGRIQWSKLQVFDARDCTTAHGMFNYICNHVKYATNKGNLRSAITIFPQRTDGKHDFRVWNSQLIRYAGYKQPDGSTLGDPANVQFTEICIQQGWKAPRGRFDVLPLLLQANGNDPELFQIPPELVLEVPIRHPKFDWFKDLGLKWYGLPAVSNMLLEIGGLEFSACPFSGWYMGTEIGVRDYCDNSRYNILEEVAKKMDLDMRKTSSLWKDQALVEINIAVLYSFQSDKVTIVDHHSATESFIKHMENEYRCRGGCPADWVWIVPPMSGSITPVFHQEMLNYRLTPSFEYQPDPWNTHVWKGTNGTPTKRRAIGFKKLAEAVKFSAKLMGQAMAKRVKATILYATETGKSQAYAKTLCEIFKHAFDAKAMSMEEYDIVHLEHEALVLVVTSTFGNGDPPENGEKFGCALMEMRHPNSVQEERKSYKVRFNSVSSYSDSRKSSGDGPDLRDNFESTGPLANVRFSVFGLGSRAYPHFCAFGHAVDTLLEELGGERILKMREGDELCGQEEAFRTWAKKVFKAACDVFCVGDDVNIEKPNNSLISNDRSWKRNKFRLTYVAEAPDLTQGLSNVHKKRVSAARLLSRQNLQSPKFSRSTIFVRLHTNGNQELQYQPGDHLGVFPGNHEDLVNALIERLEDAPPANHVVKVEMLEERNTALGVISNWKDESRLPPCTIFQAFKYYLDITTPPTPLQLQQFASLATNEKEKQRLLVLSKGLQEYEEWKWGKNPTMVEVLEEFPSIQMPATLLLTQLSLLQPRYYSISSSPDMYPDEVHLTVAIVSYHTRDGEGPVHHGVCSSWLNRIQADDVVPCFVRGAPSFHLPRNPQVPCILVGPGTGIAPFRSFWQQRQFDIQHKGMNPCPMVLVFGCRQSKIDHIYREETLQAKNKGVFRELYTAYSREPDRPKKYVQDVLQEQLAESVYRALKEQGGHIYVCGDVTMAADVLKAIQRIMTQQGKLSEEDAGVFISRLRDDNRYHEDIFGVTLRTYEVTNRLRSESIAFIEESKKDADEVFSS
Description: as §1
(A) Screen for neuronal nitric oxide synthase inhibiting activity
Enzyme was isolated from rat hippocampus or cerebellum. The cerebellum or hippocampus of a male Sprague-Dawley rat (250-275 g) is removed following CO2 anaesthesia of the animal and decapitation. Cerebellar or hippocampal supernatant is prepared by homogenisation in 50 mM Tris-HCl with 1 mM EDTA buffer (pH 7.2 at 25° C.) and centifugation for 15 minutes at 20,000 g. Residual L-arginine is removed from the supernatant by chromatography through Dowex AG-50W-X8 sodium form and hydrogen form columns successively, and further centrifugation at 1000 g for 30 seconds.
For the assay, 25 μl of the final supernatant is added to each of 96 wells (of a 96 well filter plate) containing 25 μl L-arginine solution (of concentration 18 μM ^1 H-L-arginine, 96 nM ^3 H-L-arginine)and either 25 μl of an assay buffer (50 mM HEPES, 1 mM EDTA, 1.5 mM CaCl2, pH 7.4) or 25 μl of test compound in the buffer at 22° C. To each test tube is added 25 μl of complete assay buffer (50 mM HEPES, 1 mM EDTA, 1.5 mM CaCl2, 1 mM DTT, 100 μM NADPH, 10 μg/ml calmodulin, pH 7.4) to initiate the reaction and the reaction is stopped after 10 minutes by addition of 200 μl of a slurry of termination buffer (20 mM HEPES, 2 mM EDTA, pH 5.5) and Dowex AG-50W-X8 200-400 mesh.
Labelled L-citrulline is separated from labelled L-arginine by filtering each filter plate and 75 ul of each terminated reaction is added to 3 ml of scintillation cocktail. The L-citrulline is then quantified by scintillation counting.
IC50 values for test compounds were initially estimated from the inhibiting activity of 1, 10 and 100 μM solutions of the compounds.

T2 sequence (P29474 2-1203): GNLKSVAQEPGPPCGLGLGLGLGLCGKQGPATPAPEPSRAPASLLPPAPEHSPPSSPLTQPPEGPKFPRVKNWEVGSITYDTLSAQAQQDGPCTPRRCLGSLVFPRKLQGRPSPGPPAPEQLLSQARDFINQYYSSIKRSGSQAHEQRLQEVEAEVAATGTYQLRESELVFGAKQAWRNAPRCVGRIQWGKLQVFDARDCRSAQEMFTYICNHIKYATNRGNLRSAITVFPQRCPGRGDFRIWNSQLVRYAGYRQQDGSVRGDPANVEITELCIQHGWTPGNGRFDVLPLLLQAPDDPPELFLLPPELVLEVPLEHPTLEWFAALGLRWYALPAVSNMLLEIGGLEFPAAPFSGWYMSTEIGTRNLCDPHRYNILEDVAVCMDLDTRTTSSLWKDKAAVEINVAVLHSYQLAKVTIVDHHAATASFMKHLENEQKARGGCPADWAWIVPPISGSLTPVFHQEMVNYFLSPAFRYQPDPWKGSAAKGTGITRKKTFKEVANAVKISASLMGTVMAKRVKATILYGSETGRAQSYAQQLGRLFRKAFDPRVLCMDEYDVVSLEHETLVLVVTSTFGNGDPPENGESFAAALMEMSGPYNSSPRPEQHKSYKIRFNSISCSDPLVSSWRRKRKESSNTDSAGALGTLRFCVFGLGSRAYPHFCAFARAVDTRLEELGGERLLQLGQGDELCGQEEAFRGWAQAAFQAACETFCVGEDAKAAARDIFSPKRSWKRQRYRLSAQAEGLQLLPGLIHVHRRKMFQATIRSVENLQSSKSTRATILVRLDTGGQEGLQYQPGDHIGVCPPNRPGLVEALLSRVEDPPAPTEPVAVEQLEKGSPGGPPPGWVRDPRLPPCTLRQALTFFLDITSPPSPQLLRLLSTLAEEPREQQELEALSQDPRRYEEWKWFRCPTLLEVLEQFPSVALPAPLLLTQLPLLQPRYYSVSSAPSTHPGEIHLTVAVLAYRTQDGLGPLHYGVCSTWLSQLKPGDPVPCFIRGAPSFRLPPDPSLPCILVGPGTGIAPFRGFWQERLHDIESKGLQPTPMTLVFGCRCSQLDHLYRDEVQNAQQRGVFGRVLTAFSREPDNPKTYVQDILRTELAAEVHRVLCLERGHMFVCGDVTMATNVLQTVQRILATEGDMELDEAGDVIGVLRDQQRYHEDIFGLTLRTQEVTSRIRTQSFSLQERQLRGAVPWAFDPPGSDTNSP

N=C(N)NN [Aminoguanidine, reference compound]
IC50 ([1]; inducible isoform, DLD-1 cell lysate, standard to verify the procedure, read-out: IC50 (50% inhibitory concentration) (Screen B standard)): 10 µM

CCSC(=N)Nc1ccc2c(c1)CNCC2 [Example 1, N-(1,2,3,4-tetrahydroisoquinolin-7-yl)carbamimidothioic acid ethyl ester]
IC50 in Screen C relative to that obtained in Screen A (selectivity) ([2]; Screen C (endothelial isoform) IC50 / Screen A (neuronal) IC50): more than 10 times
IC50 [3]: < 10 µM
IC50 in Screen B relative to that obtained in Screen A (selectivity) ([1]; Screen B (macrophage isoform) IC50 / Screen A (neuronal) IC50): more than 10 times

CCSC(=N)Nc1ccc2c(c1)CC(N(C)Cc1cccc(Cl)c1)C2 (stereo not shown) [Example 2, N-5-(2-(((3-chlorophenyl)methyl)(methyl)amino)indanyl)carbamimidothioic acid, ethyl ester]
IC50 ([3]; neuronal isoform, rat hippocampus or cerebellum supernatant, read-out: IC50 (Screen A)): < 10 µM

NC(=NCCC[C@H](N)C(=O)O)N[N+](=O)[O-] [N-nitro-L-arginine, reference compound]
inhibition at 1 µM ([2]; at a concentration of 1 μM, typical experiment, read-out: inhibition of nitric oxide synthase (Screen C reference standard)): 70 to 90%
inhibition at 1 µM ([3]; at a concentration of 1 μM, cerebellar supernatant, typical experiment, read-out: inhibition of nitric oxide synthase (Screen A reference standard)): 80%
